Experimental data published in ChEMBL document CHEMBL1154731, “Theoretical and structural analysis of the active site of the transcriptional regulators LasR and TraR, using molecular docking methodology for identifying potential analogues of acyl homoserine lactones (AHLs) with anti-quorum sensing activity” (Eur J Med Chem, 2010).

What was measured:
[1] = biological target: T1, Transcriptional activator protein TraR (Agrobacterium tumefaciens, UniProt P33905); assay: Inhibition of Agrobacterium tumefaciens TraR
T1 sequence (P33905 whole entry): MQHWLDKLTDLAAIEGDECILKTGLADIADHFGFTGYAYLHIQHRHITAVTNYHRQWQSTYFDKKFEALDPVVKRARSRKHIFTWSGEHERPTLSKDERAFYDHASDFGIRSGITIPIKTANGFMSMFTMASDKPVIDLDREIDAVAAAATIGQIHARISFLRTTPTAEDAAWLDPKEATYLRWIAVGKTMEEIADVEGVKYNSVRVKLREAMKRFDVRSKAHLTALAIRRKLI

[2] = biological target: T2, Transcriptional activator protein LasR (Pseudomonas aeruginosa (strain ATCC 15692 / PAO1 / 1C / PRS 101 / LMG12228), UniProt P25084); assay: Inhibition of Pseudomonas aeruginosa LasR
T2 sequence (P25084 whole entry): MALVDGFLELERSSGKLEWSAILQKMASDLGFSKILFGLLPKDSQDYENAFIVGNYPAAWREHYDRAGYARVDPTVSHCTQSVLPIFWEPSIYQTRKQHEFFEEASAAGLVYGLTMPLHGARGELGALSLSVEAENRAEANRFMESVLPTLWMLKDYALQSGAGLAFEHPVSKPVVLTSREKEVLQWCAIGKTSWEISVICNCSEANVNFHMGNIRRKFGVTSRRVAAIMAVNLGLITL

IC50 [1] [µM]	IC50 [2] [µM]	SMILES
0.13	51.5	CCCCCCC(=O)N[C@H]1CCOC1=O
1.1	14.8	O=C(CCCc1c[nH]c2ccccc12)N[C@H]1CCOC1=O
1	33.1	O=C(CC1C=CCC1)N[C@H]1CCOC1=O (stereo partly drawn)
0.5	53.6	O=C(CC(=O)N[C@H]1CCOC1=O)Cc1ccccc1
